Data from the RepoRT retention time repository (doi:10.1021/acs.analchem.2c02893).

Test: RP, Thermo Scientific Acclaim RSLC 120 C18, 100 × 2.1 mm, 2.2 µm, 30 °C, 0.2 mL/min, estimated dead time 1.1 min; A: 90% water + 10% methanol + 0.01% formic acid + 5 mM ammonium formate, pH 3.61; B: methanol + 0.01% formic acid + 5 mM ammonium formate, pH 3.61; gradient (min/%B) 0/1 1/1 2/39 13/99.9 15/99.9 15.1/1 20.1/1
Conditions: stereoisomer not certain

`COP(=O)(OC)OC1=C(Cl)C2CC=CC12` (stereo unspecified) [Heptenophos] and `CCOC(=O)C(C)(C)Oc1ccc(Cl)cc1` [Clofibrate] are within 1.5-fold of each other in LC retention time: 8.49 min for the first, 11 min for the second.

`CCCCCCCCCCCCN=C(N)N` [Dodine (Ion1+)] and `CCCCCCCCn1sc(Cl)c(Cl)c1=O` [4-5-Dichloro-2-n-octyl-isothiazol-3(2H)-on (DCOIT)] are within 1.5-fold of each other in LC retention time: 11.2 min for the first, 12.5 min for the second.

Compared with `CCCCCCCCCCCCCCCCCC[N+](C)(C)CCCCCCCCCCCCCCCCCC` [Dimethyldioctadecylammonium], `CCCCCCn1c(=O)c2c(ncn2C)n(C)c1=O` [Pentifylline] is 1.6-fold lower in LC retention time: 15 min for the first, 9.44 min for the second.

`CCCN(CCC)CCc1cccc2c1CC(=O)N2` [Ropinirole] and `CCN(CCO)CCCC(C)Nc1ccnc2cc(Cl)ccc12` (stereo unspecified) [Chloroquine-Hydroxy] are the same in LC retention time: 3.98 min for the first, 3.98 min for the second.

`CC(C)(C)N(NC(=O)c1ccc(Cl)cc1)C(=O)c1ccccc1` [Halofenozide] and `COc1cccc(C(=O)NN(C(=O)c2cc(C)cc(C)c2)C(C)(C)C)c1C` [Methoxyfenozide] are within 1.5-fold of each other in LC retention time: 9.25 min for the first, 9.56 min for the second.

First: COc1cc2nc(N3CCN(C(=O)c4ccco4)CC3)nc(N)c2cc1OC [Prazosin]
Second: CCCc1nn(C)c2c(=S)nc(-c3cc(C(=S)N4CCN(C)CC4)ccc3OCC)[nH]c12 [carbodenafil-Dithio-desmethyl]
The LC retention time of the first is 2.2-fold lower: 5.34 min for the first, 11.5 min for the second.

`CN1CCCC1Cc1c[nH]c2ccc(CCS(=O)(=O)c3ccccc3)cc12` (stereo unspecified) [Eletriptan] and `CSc1ccc2c(c1)N(CCC1CCCCN1C)c1ccccc1S2=O` (stereo unspecified) [Thioridazine-5-sulfoxide] are within 1.5-fold of each other in LC retention time: 5.51 min for the first, 6.64 min for the second.

`CCOC(=O)C1(c2ccccc2)CCC=CC1NC` (stereo unspecified) [Tilidine-Nor] and `CCN(CC)C(=O)C1(c2ccccc2)CC1CN` (stereo unspecified) [Milnacipran] are within 1.5-fold of each other in LC retention time: 5.28 min for the first, 5.73 min for the second.

Going from `S=c1nc[nH]c2nc[nH]c12` [6-Mercaptopurine] to `Cc1nnc(-c2ccccc2)c(=O)n1N` [Metamitron], the LC retention time rises from 2.62 min to 5.24 min (2-fold).

First: CC(C)=CC1C(C(=O)OCc2coc(Cc3ccccc3)c2)C1(C)C (stereo unspecified) [Bioresmethrin]
Second: CC1C2Cc3ccc(O)cc3C1(C)CCN2CCc1ccccc1 (stereo unspecified) [Phenazocine]
The LC retention time of the first is 2.2-fold higher: 13.6 min for the first, 6.08 min for the second.

`O=c1[nH]c2ccccc2n1CCN1CCN(c2cccc(C(F)(F)F)c2)CC1` [Flibanserin] and `c1ccc(CN(CCN2CCCC2)c2ccccc2)cc1` [Histapyrrodine] are within 1.5-fold of each other in LC retention time: 9.99 min for the first, 7.19 min for the second.

`CNC(C)C(O)c1ccc(O)cc1` (stereo unspecified) [Synphrine-Methyl] and `CNC(C)Cc1ccc(O)cc1` (stereo unspecified) [Pholedrine (Amphetamine-P-Hydroxy-methyl)] are within 1.5-fold of each other in LC retention time: 2.05 min for the first, 2.91 min for the second.

`CCN(CCO)CCn1c(Cc2ccccc2)nc2c1c(=O)n(C)c(=O)n2C` [Bamifylline] and `CC(C)C1(C)N=C(c2nc3ccccc3cc2C(=O)O)NC1=O` (stereo unspecified) [Imazaquin] are within 1.5-fold of each other in LC retention time: 5.24 min for the first, 6.1 min for the second.

`O=C1CC2OCC=C3CN4CCC56c7ccccc7N1C5C2C3CC46` (stereo unspecified) [Strychnine] and `NC(=O)N1c2ccccc2CC(O)c2ccccc21` (stereo unspecified) [Carbamazepine -10-Hydroxy] are within 1.5-fold of each other in LC retention time: 4.16 min for the first, 5.94 min for the second.

`CCc1ccc(CCOc2ccc(CC3SC(=O)NC3=O)cc2)nc1` (stereo unspecified) [Pioglitazone] and `CNCCN1C(=O)C(OC(C)=O)C(c2ccc(OC)cc2)Sc2ccccc21` (stereo unspecified) [Diltiazem-Nor] are within 1.5-fold of each other in LC retention time: 9.09 min for the first, 7.21 min for the second.

`CNc1nc(C)c(C)c(OC(=O)N(C)C)n1` [Pirimicarb-desmethyl] and `Cc1cc(N(C)C)nc(Cl)n1` [Crimidine] are within 1.5-fold of each other in LC retention time: 5.89 min for the first, 6.2 min for the second.

`CCC(C)c1ccccc1OC(=O)NC` (stereo unspecified) [Fenobucarb] and `CNC(=O)Oc1cccc(C)c1` [Metolcarb] are within 1.5-fold of each other in LC retention time: 9.05 min for the first, 6.59 min for the second.

`COc1cc(OC)n2nc(S(=O)(=O)Nc3c(Cl)ccc(C)c3Cl)nc2n1` [Metosulam] and `Cc1ccn2nc(S(=O)(=O)Nc3c(F)cccc3F)nc2n1` [Flumetsulam] are within 1.5-fold of each other in LC retention time: 7.1 min for the first, 4.83 min for the second.

`Cc1cnc(NC(=O)C2=C(O)c3ccccc3S(=O)(=O)N2C)s1` [Meloxicam] and `CCc1cc2c(s1)N(C)C(=O)CN=C2c1ccccc1Cl` [Clotiazepam] are within 1.5-fold of each other in LC retention time: 7.09 min for the first, 10.2 min for the second.

`C1=Cc2ccccc2Nc2ccccc21` [Iminostilbene] and `CSC1=NC(C)(c2ccccc2)C(=O)N1Nc1ccccc1` (stereo unspecified) [Fenamidone] are within 1.5-fold of each other in LC retention time: 10.1 min for the first, 9.22 min for the second.

Going from `O=C(O)C(c1ccccc1)C1CCCCN1` (stereo unspecified) [Ritalinic acid] to `CC(C)(C)C(NC(=O)c1nn(CC2CCCCC2)c2ccccc12)C(N)=O` (stereo unspecified) [MAB-CHMINACA], the LC retention time rises from 4.61 min to 11.8 min (2.6-fold).

`COC(=O)C(C)Oc1ccc(Oc2ccc(Cl)cc2Cl)cc1` (stereo unspecified) [Diclofop-methyl] and `Cc1ccc(Cl)c(Nc2ccccc2C(=O)O)c1Cl` [Meclofenamic acid] are within 1.5-fold of each other in LC retention time: 12.3 min for the first, 11.3 min for the second.

`Cc1cccc(C)c1OCC(C)N` (stereo unspecified) [Mexiletine] and `Cc1ccc(NC=O)c(C)c1` [N-2-4-Dimethylphenylformamide (DMF. Metabolite Amitraz)] are within 1.5-fold of each other in LC retention time: 5.59 min for the first, 6.67 min for the second.

Going from `CCN(CC)CCNC(=O)c1cc(S(C)(=O)=O)ccc1OC` [Tiapride] to `CCCCCn1cc(C(=O)NC(C(N)=O)C(C)(C)C)c2ccccc21` (stereo unspecified) [ADBICA], the LC retention time rises from 3.41 min to 11.1 min (3.3-fold).

`O=C(OCC(O)CO)c1ccccc1Nc1ccnc2cc(Cl)ccc12` (stereo unspecified) [Glaphenine] and `COC=C(C(=O)O)c1ccccc1Oc1cc(Oc2ccccc2C#N)ncn1` [Azoxystrobin acid] are within 1.5-fold of each other in LC retention time: 6.63 min for the first, 8.18 min for the second.

Compared with `CC(Cc1ccc(O)cc1)NCC(O)c1cc(O)cc(O)c1` (stereo unspecified) [Fenoterol], `CCOC(=O)c1ccc(O)cc1` [Ethylparaben] is 2-fold higher in LC retention time: 3.61 min for the first, 7.15 min for the second.

Going from `CNC(=N[N+](=O)[O-])NCC1CCOC1` (stereo unspecified) [Dinotefuran] to `CCSC(=O)N(CC)C1CCCCC1` [Cycloate], the LC retention time rises from 3.59 min to 11.7 min (3.3-fold).

Going from `Clc1ccc2c(c1)C(N1CCNCC1)=Nc1ccccc1O2` [Amoxapine] to `CCn1cc(C(=O)O)c(=O)c2cc(F)c(N3CCNCC3)cc21` [Norfloxacin], the LC retention time falls from 7.64 min to 4.46 min (1.7-fold).

`COC(=O)C1C2CC3c4[nH]c5cc(OC)ccc5c4CCN3CC2CC(OC(=O)c2cc(OC)c(OC)c(OC)c2)C1OC` (stereo unspecified) [Reserpine] and `CCCc1nn(C)c2c(=O)[nH]c(-c3cc(S(=O)(=O)N4CCN(C5CCCC5)CC4)ccc3OCC)nc12` [Cyclopentynafil] are within 1.5-fold of each other in LC retention time: 8.47 min for the first, 9.01 min for the second.

First: CC(C)=CCN1CCC2(C)c3cc(O)ccc3CC1C2C (stereo unspecified) [Pentazocine]
Second: CC12CCC3c4ccc(O)cc4CCC3C1CCC2O (stereo unspecified)
The LC retention time of the first is 2.2-fold lower: 5.46 min for the first, 12 min for the second.

First: CC(C(=O)O)c1ccc(CC(C)(C)O)cc1 (stereo unspecified) [Ibuprofen- 2-Hydroxy]
Second: O=C(NC(CO)C(O)c1ccc([N+](=O)[O-])cc1)C(Cl)Cl (stereo unspecified) [CAF-3]
The LC retention time of the first is 1.8-fold lower: 7.08 min for the first, 12.7 min for the second.

`CC(C)(C)CC(C)(C)c1ccc(OCCOCC[N+](C)(C)Cc2ccccc2)cc1` [Benzethonium] and `CCOP(=S)(Oc1ccc([N+](=O)[O-])cc1)c1ccccc1` (stereo unspecified) [EPN] are within 1.5-fold of each other in LC retention time: 11.6 min for the first, 11.7 min for the second.

`CN1CCN(C(=O)OC2c3nccnc3C(=O)N2c2ccc(Cl)cn2)CC1` (stereo unspecified) [Zopiclone] and `Cc1cc(C)nc(NC(=O)NS(=O)(=O)c2ccccc2C(=O)OC2COC2)n1` [Oxasulfuron] are within 1.5-fold of each other in LC retention time: 4.89 min for the first, 6.52 min for the second.

`O=C(CC1NCCCC1O)Cn1cnc2cc(Br)c(Cl)cc2c1=O` (stereo unspecified) [Halofuginone] and `Clc1ccccc1CN1CCc2sccc2C1` [Ticlopidine] are within 1.5-fold of each other in LC retention time: 6.76 min for the first, 9.25 min for the second.

`CC1CCCC(C)N1CCCC(O)(c1ccccc1)c1ccccn1` (stereo unspecified) [Pirmenol] and `CN1CCCC(CC2c3ccccc3Sc3ccccc32)C1` (stereo unspecified) [Metixene] are within 1.5-fold of each other in LC retention time: 6.01 min for the first, 8.51 min for the second.

Going from `CSc1nnc(C(C)(C)C)c(=O)n1N` [Metribuzin] to `CCOCCc1ccc(OCCNc2ncnc(CC)c2Cl)c(C)c1C` [Pyrimidifen], the LC retention time rises from 7.07 min to 12.5 min (1.8-fold).

`CC1(C)C(C(=O)OC(C#N)c2cccc(Oc3ccccc3)c2)C1(C)C` (stereo unspecified) [Fenpropathrin] and `O=C(Oc1ccccc1)c1ccccc1C(=O)Oc1ccccc1` [Phthalate-Diphenyl] are within 1.5-fold of each other in LC retention time: 12.9 min for the first, 11.2 min for the second.

`C#CC1(O)CCC2C3CCc4cc(O)ccc4C3CCC21C` (stereo unspecified) [EE2 - Ethinyl estradiol] and `CC12CCC(=O)C=C1CCC1C2CCC2(C)C1CCC2(C)O` (stereo not drawn) [Testosterone- 17-alpha-methyl] are within 1.5-fold of each other in LC retention time: 9.46 min for the first, 10.4 min for the second.

`CC(=O)C1(O)CCC2C3C=C(Cl)C4=CC(=O)C5CC5C4(C)C3CCC21C` (stereo unspecified) [Cyproterone] and `CC(=O)C1(O)CCC2C3CC(C)C4=CC(=O)CCC4(C)C3CCC21C` (stereo unspecified) [Medroxyprogesterone] are within 1.5-fold of each other in LC retention time: 10.1 min for the first, 10.7 min for the second.

Compared with `O=C1N(CCN2CCCCC2)C(=O)C(c2ccccc2)(N2CCCCC2)C(=O)N1CCN1CCCCC1` [Barverin], `CCCCCn1cc(C(=O)NC23CC4CC(CC(C4)C2)C3)c2ccccc21` [APICA] is 1.7-fold higher in LC retention time: 7.64 min for the first, 13.2 min for the second.

`CC12C=CC3=C4CCC(=O)C=C4CCC3C1CCC2O` (stereo unspecified) [Trenbolone] and `CC(=NNC(=O)Nc1cc(F)cc(F)c1)c1ncccc1C(=O)O` [Diflufenzopyr] are within 1.5-fold of each other in LC retention time: 8.89 min for the first, 6.22 min for the second.

`COCC(C)N(C(=O)C(=O)O)c1c(C)csc1C` (stereo unspecified) [Dimethenamide-OXA] and `CC(C)Oc1cccc(NC(=O)c2ccccc2C(F)(F)F)c1` [Flutolanil] are within 1.5-fold of each other in LC retention time: 6.36 min for the first, 9.52 min for the second.

`CCOP(=S)(OCC)SCSCC` [Phorate] and `Cc1c(OCC(F)(F)F)ccnc1CS(=O)c1nc2ccccc2[nH]1` (stereo unspecified) [Lansoprazole] are within 1.5-fold of each other in LC retention time: 11.4 min for the first, 8.38 min for the second.
